Data on 1 compound can be found in ChEMBL document CHEMBL4765455, “Design, synthesis, and biological evaluations of novel 3-amino-4-ethynyl indazole derivatives as Bcr-Abl kinase inhibitors with potent cellular antileukemic activity” (Eur J Med Chem, 2020).

A word on the inhibition: it is the share of the control response that was lost under treatment. High values mean a response far below the control, low ones a response near the control. The GI50 is the concentration giving 50% growth inhibition. What is called EC50 is the concentration needed to bring the measured effect to its halfway point. The term Cmax denotes the peak of the concentration-time curve. Broadly, the half-life is how long it takes for the measured level to halve. The low end stands for rapid decline, the high end for slow decline. In general, MRT refers to the average time that molecules of a dose stay in the body.

Structures are written as SMILES.

Series [1] addresses Macrophage colony-stimulating factor 1 receptor (Homo sapiens, UniProt P07333). Nature of the series: Inhibition of FMS (unknown origin) at 1 uM relative to control.
For series [2], the target named is Death-associated protein kinase 1 (Homo sapiens) (UniProt P53355). Kind of series: Inhibition of DAPK1 (unknown origin) at 1 uM relative to control.
In series [3] the target is Insulin-like growth factor 1 receptor (Homo sapiens) (UniProt P08069). Nature of the series: Inhibition of IGF1R (unknown origin) at 1 uM relative to control.
Series [4] concerns the target Tyrosine-protein kinase JAK2 (Homo sapiens) (UniProt O60674). Nature of the series: Inhibition of JAK2 (unknown origin) at 1 uM relative to control.
Series [5] is filed under the species Homo sapiens. Kind of series: Selectivity index, ratio of IC50 for FMS (unknown origin) to IC50 for Bcr-Abl (unknown origin).
For series [6], the species on record is Homo sapiens. Nature of the series: Selectivity index, ratio of IC50 for BRAF (unknown origin) to IC50 for Bcr-Abl (unknown origin).
Series [7] deals with K562. Nature of the series: Antiproliferative activity against human K562 cells assessed as cell growth inhibition measured after 48 hrs by SRB assay. The class given is functional. (In general: In SRB staining, fixed cells bind dye roughly in proportion to their protein.)
Series [8] concerns MOLT-4. Kind of series: Antiproliferative activity against human MOLT-4 cells assessed as cell growth inhibition measured after 48 hrs by SRB assay. The class given is functional.
Series [9] concerns RPMI-8226. Kind of series: Antiproliferative activity against human RPMI-8226 cells assessed as cell growth inhibition at 10 uM measured after 48 hrs by SRB assay relative to control. The class given is functional. Conditions: read-out: GI.
Series [10] concerns RPMI-8226. Kind of series: Antiproliferative activity against human RPMI-8226 cells assessed as cell growth inhibition measured after 48 hrs by SRB assay. The class given is functional.
Series [11] has as its target Tyrosine-protein kinase ABL1 (Homo sapiens, UniProt P00519). Kind of series: Inhibition of NanoLuc-fused ABL1 (unknown origin) expressed in human HEK293 cells incubated for 2 to 3 mins by NanoBRET assay. The class given is cell-based. For orientation: In BRET a luciferase serves as donor, and the signal depends on an acceptor being close.
In series [12] the target is Bcr/Abl fusion protein (Homo sapiens) (UniProt P00519+P11274). Kind of series: Inhibition of Bcr-Abl in human K562 cells assessed as reduction in Bcr-Abl phosphorylation incubated for 1 hr by Western blotting analysis. The class given is cell-based. Conditions: dose 0.003-0.3 µM.
Series [13] can be described thus: Cmax in ICR mouse at 10 mg/kg, po measured up to 8 hrs by LC-MS/MS analysis. The class given is ADME, organism-based. More on the design: route oral, dose 10 mg/kg, time <=8. The settings on record: in vivo.
The nature of series [14]: Half life in ICR mouse at 10 mg/kg, po measured up to 8 hrs by LC-MS/MS analysis. The settings on record: in vivo. The class given is ADME, organism-based.
Series [15] can be described thus: Mean residence time in ICR mouse at 5 mg/kg, iv measured up to 8 hrs by LC-MS/MS analysis. The class given is ADME, organism-based. Conditions: in vivo.
Series [16] can be described thus: Mean residence time in ICR mouse at 10 mg/kg, po measured up to 8 hrs by LC-MS/MS analysis. The class given is ADME, organism-based. Conditions: in vivo.
Series [17] is described as follows: Volume of distribution at steady state in ICR mouse at 5 mg/kg, iv measured up to 8 hrs by LC-MS/MS analysis. The class given is ADME, organism-based. Conditions: in vivo, read-out: Vdss.

Insulin-like growth factor 1 receptor (Homo sapiens), sequence (P08069 31-736 limits assumed): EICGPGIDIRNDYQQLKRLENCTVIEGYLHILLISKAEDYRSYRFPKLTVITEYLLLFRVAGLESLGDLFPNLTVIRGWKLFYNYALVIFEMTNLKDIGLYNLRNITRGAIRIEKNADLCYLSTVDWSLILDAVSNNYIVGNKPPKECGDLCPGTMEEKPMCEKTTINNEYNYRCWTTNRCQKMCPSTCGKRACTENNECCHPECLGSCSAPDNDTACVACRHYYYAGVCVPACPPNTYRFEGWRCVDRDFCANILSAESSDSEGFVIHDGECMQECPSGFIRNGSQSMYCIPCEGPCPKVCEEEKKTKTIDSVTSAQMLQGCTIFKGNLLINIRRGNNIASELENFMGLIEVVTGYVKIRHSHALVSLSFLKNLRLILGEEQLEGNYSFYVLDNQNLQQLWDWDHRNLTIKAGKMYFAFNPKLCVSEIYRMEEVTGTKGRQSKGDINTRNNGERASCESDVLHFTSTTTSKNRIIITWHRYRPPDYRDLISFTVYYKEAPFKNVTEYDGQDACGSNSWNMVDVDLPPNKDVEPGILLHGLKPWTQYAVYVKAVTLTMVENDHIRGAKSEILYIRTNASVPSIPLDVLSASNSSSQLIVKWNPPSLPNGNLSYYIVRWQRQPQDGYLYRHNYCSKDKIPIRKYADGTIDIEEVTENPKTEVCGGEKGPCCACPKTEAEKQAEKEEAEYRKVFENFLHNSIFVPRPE
Insulin-like growth factor 1 receptor (Homo sapiens), sequence (P08069 741-1367 limits assumed): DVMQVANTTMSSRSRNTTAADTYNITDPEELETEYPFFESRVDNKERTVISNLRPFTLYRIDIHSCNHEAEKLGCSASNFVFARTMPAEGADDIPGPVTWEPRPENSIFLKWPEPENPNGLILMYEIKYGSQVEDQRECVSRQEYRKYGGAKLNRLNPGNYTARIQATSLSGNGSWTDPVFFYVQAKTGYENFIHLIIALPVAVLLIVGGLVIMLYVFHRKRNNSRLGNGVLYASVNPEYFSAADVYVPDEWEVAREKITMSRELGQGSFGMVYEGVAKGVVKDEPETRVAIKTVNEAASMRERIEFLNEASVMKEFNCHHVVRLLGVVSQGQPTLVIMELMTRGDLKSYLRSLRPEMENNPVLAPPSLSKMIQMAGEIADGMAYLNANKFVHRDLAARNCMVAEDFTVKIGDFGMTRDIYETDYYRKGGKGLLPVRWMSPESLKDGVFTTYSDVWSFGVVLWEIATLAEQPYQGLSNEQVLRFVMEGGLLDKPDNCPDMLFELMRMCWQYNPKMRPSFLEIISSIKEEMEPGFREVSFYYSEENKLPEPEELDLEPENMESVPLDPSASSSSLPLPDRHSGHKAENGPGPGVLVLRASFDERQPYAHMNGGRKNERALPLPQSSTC
Tyrosine-protein kinase JAK2 (Homo sapiens), sequence (O60674 whole entry): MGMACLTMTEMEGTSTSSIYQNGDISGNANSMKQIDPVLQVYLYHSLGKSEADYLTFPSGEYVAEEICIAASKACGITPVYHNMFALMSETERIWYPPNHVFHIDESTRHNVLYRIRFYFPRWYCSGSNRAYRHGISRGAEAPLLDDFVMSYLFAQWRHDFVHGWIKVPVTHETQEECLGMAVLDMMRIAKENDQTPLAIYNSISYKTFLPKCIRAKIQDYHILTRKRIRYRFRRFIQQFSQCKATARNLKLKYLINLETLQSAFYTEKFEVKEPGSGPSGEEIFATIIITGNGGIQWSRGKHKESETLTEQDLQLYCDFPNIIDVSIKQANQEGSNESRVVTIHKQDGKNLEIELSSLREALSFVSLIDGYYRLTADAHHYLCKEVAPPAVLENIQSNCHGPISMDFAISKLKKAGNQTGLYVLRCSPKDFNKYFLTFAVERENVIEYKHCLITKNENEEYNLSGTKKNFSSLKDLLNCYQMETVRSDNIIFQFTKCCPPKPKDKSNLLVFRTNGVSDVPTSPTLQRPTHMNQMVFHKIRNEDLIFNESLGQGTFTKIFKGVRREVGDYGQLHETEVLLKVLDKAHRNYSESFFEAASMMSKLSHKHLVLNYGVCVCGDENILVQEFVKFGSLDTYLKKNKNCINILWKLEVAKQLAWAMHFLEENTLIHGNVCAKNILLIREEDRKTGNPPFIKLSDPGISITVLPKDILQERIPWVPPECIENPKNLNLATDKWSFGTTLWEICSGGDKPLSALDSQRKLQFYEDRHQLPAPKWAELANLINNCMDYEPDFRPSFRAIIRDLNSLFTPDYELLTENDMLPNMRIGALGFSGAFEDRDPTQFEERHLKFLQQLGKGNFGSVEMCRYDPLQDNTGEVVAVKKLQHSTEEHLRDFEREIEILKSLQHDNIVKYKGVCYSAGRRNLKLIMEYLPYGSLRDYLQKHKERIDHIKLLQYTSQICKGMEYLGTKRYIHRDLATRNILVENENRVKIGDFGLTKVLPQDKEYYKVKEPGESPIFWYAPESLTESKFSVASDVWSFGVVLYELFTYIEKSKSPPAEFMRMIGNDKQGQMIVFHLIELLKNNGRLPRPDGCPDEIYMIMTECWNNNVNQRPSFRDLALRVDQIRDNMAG
Death-associated protein kinase 1 (Homo sapiens), sequence (P53355 whole entry, looked up): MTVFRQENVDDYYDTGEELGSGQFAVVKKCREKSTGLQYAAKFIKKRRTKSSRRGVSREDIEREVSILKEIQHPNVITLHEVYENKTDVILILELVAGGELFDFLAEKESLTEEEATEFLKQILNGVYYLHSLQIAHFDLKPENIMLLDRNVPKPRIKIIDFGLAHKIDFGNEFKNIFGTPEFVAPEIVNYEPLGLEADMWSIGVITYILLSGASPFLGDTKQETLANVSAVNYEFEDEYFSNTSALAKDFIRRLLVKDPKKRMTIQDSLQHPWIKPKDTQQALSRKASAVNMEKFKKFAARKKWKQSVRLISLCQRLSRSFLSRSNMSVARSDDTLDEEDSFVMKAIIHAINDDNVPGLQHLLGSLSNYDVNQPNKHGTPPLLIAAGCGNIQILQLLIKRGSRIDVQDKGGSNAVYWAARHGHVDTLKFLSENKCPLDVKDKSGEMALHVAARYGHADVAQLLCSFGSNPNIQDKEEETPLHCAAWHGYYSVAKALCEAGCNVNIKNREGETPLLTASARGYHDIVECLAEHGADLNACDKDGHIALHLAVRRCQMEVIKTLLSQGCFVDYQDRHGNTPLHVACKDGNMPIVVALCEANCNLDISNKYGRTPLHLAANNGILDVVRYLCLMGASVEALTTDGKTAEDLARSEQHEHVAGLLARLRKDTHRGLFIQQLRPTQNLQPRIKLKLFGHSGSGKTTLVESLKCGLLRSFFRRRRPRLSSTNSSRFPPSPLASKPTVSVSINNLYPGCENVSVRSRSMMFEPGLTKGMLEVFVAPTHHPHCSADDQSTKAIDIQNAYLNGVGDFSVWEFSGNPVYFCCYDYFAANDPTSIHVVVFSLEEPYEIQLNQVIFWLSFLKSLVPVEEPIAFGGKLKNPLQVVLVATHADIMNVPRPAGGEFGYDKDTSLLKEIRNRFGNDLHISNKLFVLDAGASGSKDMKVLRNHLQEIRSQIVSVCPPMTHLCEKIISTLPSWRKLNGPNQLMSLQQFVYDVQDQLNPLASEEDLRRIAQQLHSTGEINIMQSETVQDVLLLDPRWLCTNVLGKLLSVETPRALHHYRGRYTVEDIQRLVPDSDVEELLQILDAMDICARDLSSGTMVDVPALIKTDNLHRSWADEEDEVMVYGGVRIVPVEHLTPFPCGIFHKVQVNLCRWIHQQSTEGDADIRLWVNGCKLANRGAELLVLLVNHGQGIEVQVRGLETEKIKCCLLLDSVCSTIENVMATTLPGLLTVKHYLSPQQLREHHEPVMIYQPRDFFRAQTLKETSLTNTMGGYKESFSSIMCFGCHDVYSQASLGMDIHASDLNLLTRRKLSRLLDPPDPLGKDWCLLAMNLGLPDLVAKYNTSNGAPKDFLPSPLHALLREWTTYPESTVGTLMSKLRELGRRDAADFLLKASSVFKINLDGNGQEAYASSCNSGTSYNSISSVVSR
Macrophage colony-stimulating factor 1 receptor, sequence (P07333 whole entry): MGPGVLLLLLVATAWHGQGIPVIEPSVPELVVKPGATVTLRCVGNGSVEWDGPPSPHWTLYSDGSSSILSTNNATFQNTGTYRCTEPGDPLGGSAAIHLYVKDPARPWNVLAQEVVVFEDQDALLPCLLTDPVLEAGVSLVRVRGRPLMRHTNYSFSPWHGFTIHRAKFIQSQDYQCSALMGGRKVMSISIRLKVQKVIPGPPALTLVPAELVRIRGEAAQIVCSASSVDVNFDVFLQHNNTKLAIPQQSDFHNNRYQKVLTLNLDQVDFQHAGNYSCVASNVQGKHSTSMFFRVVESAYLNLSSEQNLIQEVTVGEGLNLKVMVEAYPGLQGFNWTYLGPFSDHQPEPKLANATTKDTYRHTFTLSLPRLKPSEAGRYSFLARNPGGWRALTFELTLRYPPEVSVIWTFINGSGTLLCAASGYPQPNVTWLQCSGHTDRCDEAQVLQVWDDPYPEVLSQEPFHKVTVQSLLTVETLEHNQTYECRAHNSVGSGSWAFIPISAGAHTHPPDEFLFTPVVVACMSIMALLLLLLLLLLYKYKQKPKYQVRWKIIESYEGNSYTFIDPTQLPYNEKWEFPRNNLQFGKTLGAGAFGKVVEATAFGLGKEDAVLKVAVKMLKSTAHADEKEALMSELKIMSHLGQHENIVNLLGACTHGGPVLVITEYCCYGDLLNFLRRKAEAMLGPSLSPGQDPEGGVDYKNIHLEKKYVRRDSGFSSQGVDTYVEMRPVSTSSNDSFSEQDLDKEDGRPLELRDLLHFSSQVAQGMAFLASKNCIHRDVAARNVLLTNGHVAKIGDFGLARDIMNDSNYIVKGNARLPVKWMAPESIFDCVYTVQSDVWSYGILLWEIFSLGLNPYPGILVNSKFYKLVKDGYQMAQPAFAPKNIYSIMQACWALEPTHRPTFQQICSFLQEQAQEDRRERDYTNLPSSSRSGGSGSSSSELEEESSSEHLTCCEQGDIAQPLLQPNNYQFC

For the compound `Nc1n[nH]c2cccc(C#Cc3cccc(NC(=O)c4ccc(N5CCOCC5)c(C(F)(F)F)c4)c3)c12`, the inhibition in series [1] was 87.8%; in series [2], below 30%; in [3], below 30%; in [4], below 30%. The figures for the Ratio IC50 in [5] and in [6] were 3.5 and 26.5, respectively. Besides, the values for the GI50 in [7], in [8] and in series [10] were below 10 nM, 1310 nM and 1980 nM, respectively. Further, the inhibition of growth at 10 µM in series [9] is above 100%. For the same compound, in [11], the half-maximal effective concentration (EC50) was 14.6 nM. Besides, the Activity entry in series [12] was “Dose-dependent effect”. This compound also returned a Cmax in series [13] of 113 ng/mL. For the same compound, the half-life in series [14] was 0.7 h. Further, the MRT stood at 4.7 h in [15] and 1.3 h in series [16]. Also, the Vd in series [17] came to 1.4 L/kg.
